Like-named read-outs stand apart in the source and are kept apart here.
Columns and labels:
Solubility in water = format: physicochemical
[1] = Blood:plasma distribution ratio; format: in vitro ADME; conditions: blood and plasma

Row | Structure (SMILES) | Solubility in water (Solubility in water) | blood plasma ratio [1] | Solubility in water (Solubility in water; dihydrate) | Solubility in water (Solubility in water; listed as compound of formula (II), dihydrate)
1 | C[C@H]1CN(C[C@H](Cc2ccccc2)C(=O)O)CC[C@@]1(C)c1cccc(O)c1.O [active metabolite, (αS,3R,4R)-4-(3-hydroxyphenyl)-3,4-dimethyl-α-(phenylmethyl)-1-piperidinepropanoic acid monohydrate] | extremely low solubility in water |  |  | 
2 | C[C@H]1CN(C[C@H](Cc2ccccc2)C(=O)NCC(=O)O)CC[C@@]1(C)c1cccc(O)c1 [Alvimopan, [[2(S)-[[4(R)-(3-hydroxyphenyl)-3(R),4-dimethyl-1-piperidinyl]methyl]-1-oxo-3-phenylpropyl]amino]acetic acid dihydrate] |  | 0.68 | extremely low solubility in water | low solubility in water except at low or high pH conditions
